In one assay the target is DNA-PK (Homo sapiens (Human), UniProt P78527). In words: DNA-PK Enzyme-Linked Immunosorbent Assay (phosphorylation of GST-p53 (1-101) peptide). It is filed as biochemical. Particulars: ELISA, ATP 20 μM. The gist of the method:
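Inhibition measured by 450 nm absorbance after HRP/TMB detection of phospho-Ser15 on immobilized GST-p53 (1-101). The kinase reaction used 0.1 μg/mL DNA-PK and 20 μM ATP, 1 h at 25 °C. Ten 3-fold compound dilutions, top final concentration 100 nM.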
In general terms: An ELISA detects its analyte on a solid surface through an enzyme-linked reagent.

The next assay deals with ATM (Homo sapiens (Human), UniProt Q13315). Description: ATM in Cell Western Assay (pKAP1 in etoposide-treated MCF-7 cells). It is filed as cell-based. The note with it: MCF-7 cells, etoposide 100 μM, 1 hr, pKAP1 readout. The essentials: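 After paraformaldehyde fixation and Triton X-100 permeabilization, immunostained plates were read by infrared scanning (ODYSSEY CLx). Compound was given as 10 doses, 3-fold dilutions from a 1 μM final top concentration.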

Structures can show the parent of a compound that is named as a salt.

The term IC50 denotes the concentration that gives 50% inhibition.

Sequence of ATM (Q13315 whole entry): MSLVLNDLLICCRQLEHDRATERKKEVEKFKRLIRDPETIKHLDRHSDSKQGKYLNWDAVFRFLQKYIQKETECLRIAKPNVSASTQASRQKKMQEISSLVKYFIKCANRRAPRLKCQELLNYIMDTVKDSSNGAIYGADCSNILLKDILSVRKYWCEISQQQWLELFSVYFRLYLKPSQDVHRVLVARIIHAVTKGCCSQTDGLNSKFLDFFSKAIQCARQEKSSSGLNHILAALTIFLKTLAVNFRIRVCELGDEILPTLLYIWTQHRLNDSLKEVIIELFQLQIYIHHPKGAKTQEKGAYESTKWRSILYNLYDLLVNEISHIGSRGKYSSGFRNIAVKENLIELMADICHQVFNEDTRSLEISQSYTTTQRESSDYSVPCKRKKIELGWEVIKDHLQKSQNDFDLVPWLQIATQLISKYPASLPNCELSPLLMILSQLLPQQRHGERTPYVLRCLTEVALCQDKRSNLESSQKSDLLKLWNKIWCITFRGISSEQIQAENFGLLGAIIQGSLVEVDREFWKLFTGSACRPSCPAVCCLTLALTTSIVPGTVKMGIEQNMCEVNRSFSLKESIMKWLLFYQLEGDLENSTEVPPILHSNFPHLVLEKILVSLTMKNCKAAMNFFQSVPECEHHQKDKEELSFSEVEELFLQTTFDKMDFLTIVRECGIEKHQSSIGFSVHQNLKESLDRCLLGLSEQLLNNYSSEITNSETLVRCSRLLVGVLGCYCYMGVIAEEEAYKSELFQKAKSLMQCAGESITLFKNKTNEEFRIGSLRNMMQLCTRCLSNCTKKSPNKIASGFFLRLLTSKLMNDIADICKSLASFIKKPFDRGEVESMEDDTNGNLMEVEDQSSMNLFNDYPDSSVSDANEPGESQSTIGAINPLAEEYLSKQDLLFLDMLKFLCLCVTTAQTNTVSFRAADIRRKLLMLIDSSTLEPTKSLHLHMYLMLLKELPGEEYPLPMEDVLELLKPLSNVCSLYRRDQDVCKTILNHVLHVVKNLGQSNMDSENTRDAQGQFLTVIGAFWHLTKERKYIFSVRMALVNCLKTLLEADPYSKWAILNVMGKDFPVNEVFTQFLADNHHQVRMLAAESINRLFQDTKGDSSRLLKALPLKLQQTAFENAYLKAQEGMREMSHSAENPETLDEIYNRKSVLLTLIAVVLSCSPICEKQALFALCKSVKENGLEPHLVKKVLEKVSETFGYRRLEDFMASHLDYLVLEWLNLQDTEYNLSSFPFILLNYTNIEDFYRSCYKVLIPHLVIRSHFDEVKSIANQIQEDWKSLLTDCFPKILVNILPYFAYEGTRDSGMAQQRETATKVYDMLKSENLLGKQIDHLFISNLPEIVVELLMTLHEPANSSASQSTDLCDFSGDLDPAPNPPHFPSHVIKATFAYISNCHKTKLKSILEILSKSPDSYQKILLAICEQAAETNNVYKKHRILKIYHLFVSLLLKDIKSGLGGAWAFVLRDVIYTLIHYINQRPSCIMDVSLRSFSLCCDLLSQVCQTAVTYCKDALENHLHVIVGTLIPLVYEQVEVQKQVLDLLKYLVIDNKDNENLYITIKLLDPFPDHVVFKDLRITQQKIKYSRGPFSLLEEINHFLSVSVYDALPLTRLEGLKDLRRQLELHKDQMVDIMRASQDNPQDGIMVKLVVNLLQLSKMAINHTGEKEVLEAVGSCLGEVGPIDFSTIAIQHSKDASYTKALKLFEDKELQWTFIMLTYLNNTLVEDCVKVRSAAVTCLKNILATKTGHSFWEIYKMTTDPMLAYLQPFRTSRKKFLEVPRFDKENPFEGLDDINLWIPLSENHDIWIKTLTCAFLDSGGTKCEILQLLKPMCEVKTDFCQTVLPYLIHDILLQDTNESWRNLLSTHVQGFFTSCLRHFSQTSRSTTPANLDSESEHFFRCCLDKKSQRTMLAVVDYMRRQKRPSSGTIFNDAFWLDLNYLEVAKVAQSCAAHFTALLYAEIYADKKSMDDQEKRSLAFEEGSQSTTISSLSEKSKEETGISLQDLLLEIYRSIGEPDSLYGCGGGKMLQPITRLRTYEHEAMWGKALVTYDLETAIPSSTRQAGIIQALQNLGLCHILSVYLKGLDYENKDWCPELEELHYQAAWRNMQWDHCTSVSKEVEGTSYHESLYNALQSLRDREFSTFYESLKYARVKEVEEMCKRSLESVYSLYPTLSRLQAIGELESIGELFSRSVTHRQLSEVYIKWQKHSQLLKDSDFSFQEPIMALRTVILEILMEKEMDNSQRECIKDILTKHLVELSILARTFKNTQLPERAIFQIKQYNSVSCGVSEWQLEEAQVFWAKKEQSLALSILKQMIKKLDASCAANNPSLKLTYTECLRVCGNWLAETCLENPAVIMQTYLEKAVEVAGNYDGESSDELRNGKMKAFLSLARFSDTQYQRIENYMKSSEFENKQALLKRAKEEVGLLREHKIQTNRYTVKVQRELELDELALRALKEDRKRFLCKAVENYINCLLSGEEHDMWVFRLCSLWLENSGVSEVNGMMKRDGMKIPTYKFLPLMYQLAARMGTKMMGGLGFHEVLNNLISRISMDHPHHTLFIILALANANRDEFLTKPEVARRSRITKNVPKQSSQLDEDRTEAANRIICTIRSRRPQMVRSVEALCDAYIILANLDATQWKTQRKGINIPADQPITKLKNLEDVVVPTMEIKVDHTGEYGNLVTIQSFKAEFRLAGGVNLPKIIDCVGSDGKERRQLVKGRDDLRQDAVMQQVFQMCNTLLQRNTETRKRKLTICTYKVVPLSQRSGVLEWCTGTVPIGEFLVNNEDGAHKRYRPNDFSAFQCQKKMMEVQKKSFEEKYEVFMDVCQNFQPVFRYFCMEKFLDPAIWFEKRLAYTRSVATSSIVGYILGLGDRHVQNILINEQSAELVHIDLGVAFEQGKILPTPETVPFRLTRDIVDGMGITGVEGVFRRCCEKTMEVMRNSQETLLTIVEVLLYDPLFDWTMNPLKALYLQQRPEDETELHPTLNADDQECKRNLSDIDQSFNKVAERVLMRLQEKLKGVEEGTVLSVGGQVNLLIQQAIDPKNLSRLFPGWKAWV

As for `CN1C(=O)C2(CCC2)c2c1cnc1ccc(-c3cnc(OCCCN4CCCCC4)c(NS(=O)(=O)C4CC4)c3)cc21` [Example 197, N-(5-(3-Methyl-2′-oxo-2′,3′-dihydrospiro[cyclobulane-1,1′-pyrrolo[2,3-c]quinolin]-8′-yl)-2-(3-(piperidin-1-yl)propoxy)pyridin-3-yl)cyclopropanesulfonamide hydrochloride], the IC50 at DNA-PK fell in the range of 0.5 to 1 nM; against ATM, 1 to 100 nM.

In the case of `Cc1ccc(S(=O)(=O)Nc2cc(-c3ccc4ncc5c(c4c3)C3(CCC3)C(=O)N5C)cnc2N2CCC(N3CCCCC3)CC2)cn1` [Example 198, N-(2-([1,4′-Bipiperidin]-1′-yl)-5-(3′-methyl-2′-oxo-2′,3′-dihydrospiro[cyclobutane-1,1′-pyrrolo[2,3-c]quinolin]-8′-yl)pyridin-3-yl)-6-methylpyridine-3-sulfonamide hydrochloride], the IC50 against DNA-PK is below 0.5 nM; against ATM it was 1 to 100 nM.

Regarding `CN1C(=O)C2(CCC2)c2c1cnc1ccc(-c3cnc(OCCCN4CCCCC4)c(NS(=O)(=O)c4cncs4)c3)cc21` [Example 199, N-(5-(3′-Methyl-2′-oxo-2′,3′-dihydrospiro[cyclobutane-1,1′-pyrrolo[2,3-c]quinolin]-8′-yl)-2-(3-(piperidin-1-yl)propoxy)pyridin-3-yl)thiazole-5-sulfonamide hydrochloride], the half-inhibitory concentration (IC50) at DNA-PK is below 0.5 nM; at ATM, 1 to 100 nM.

On to `CN1CCN(S(=O)(=O)Nc2cc(-c3ccc4ncc5c(c4c3)C3(CCC3)C(=O)N5C)cnc2OCCCN2CCCCC2)CC1` [Example 200], for which the half-inhibitory concentration (IC50) against DNA-PK is below 0.5 nM; on ATM it was 0.5 to 1 nM.

For `Cc1ccc(S(=O)(=O)Nc2cc(-c3ccc4ncc5c(c4c3)C3(CCC3)C(=O)N5C)cnc2N2CCN(C)CC2)cn1` [Example 201, 6-Methyl-N-(5-(3′-methyl-2′-oxo-2′,3′-dihydrospiro[cyclobutane-1,1′-pyrrolo[2,3-c]quinolin]-8′-yl)-2-(4-methylpiperazin-1-yl)pyridin-3-yl)pyridine-3-sulfonamide], the figures for the IC50 on DNA-PK and on ATM were below 0.5 nM and 1 to 100 nM, respectively.

In the case of `CN1C(=O)C2(CCC2)c2c1cnc1ccc(-c3cnc(OCCCN4CCCCC4)c(NS(=O)(=O)N4CCNCC4)c3)cc21` [Example 202, N-(5-(3′-Methyl-2′-oxo-2′,3′-dihydrospiro[cyclobutane-1,1′-pyrrolo[2,3-c]quinolin]-8′-yl)-2-(3-(piperidin-1-yl)propoxy)pyridin-3-yl)piperazine-1-sulfonamide], the figures for the IC50 against DNA-PK and on ATM were below 0.5 nM and 0.5 to 1 nM, respectively.

Take `CN1C(=O)C2(CCC2)c2c1cnc1ccc(-c3cnc(N4CCC(N5CCCCC5)CC4)c(NS(=O)(=O)c4ccccc4F)c3)cc21` [Example 203]: the IC50 at DNA-PK lay within 0.5 to 1 nM; against ATM, 1 to 100 nM.

For `Cc1ccc(S(=O)(=O)Nc2cc(-c3ccc4ncc5c(c4c3F)C3(CCC3)C(=O)N5C)cnc2OCCCN(C)C)cc1` [Example 204, N-(2-(3-(Dimethylamino)propoxy)-5-(9′-fluoro-3′-methyl-2′-oxo-2′,3′-dihydrospiro[cyclobutane-1,1′-pyrrolo[2,3-c]quinolin]-8′-yl)pyridin-3-yl)-4-methylbenzenesulfonamide], the IC50 was 0.5 to 1 nM at DNA-PK and 1 to 100 nM against ATM.

Regarding `CN(C)CCCOc1ncc(-c2ccc3ncc4c(c3c2)C2(CCC2)C(=O)N4C)cc1NS(=O)(=O)C1COC1` [Example 205, N-(2-(3-(Dimethylamino)propoxy)-5-(3′-methyl-2′-oxo-2′,3′-dihydrospiro[cyclobutane-1,1′-pyrrolo[2,3-c]quinolin]-8′-yl)pyridin-3-yl)oxetane-3-sulfonamide], the IC50 against DNA-PK was below 0.5 nM; on ATM, 1 to 100 nM.

As to `CN1C(=O)C2(CCC2)c2c1cnc1ccc(-c3cnc(N4CCC(N5CCCCC5)CC4)c(NS(=O)(=O)c4ccc(F)cc4F)c3)cc21` [Example 206, N-(2-([1,4′-Bipiperidin]-1′-yl)-5-(3′-methyl-2′-oxo-2′,3′-dihydrospiro[cyclobutane-1,1′-pyrrolo[2,3-c]quinolin]-8′-yl)pyridin-3-yl)-2,4-difluorobenzenesulfonamide hydrochloride], the 50% inhibitory concentration (IC50) was below 0.5 nM against DNA-PK and 1 to 100 nM on ATM.

On to `CN1C(=O)C2(CCC2)c2c1cnc1ccc(-c3cnc(N4CCC(N5CCCCC5)CC4)c(NS(=O)(=O)C4CC4)c3)cc21` [Example 207, N-(2-([1,4′-Bipiperidin]-1′-yl)-5-(3′-methyl-2′-oxo-2′,3′-dihydrospiro[cyclobutane-1,1′-pyrrolo[2,3-c]quinolin]-8′-yl)pyridin-3-yl)cyclopropanesulfonamide hydrochloride], for which the half-maximal inhibitory concentration (IC50) against DNA-PK is below 0.5 nM; against ATM, 1 to 100 nM.

Take `CN1C(=O)C2(CCC2)c2c1cnc1ccc(-c3cnc(N4CCC(N5CCCCC5)CC4)c(NS(=O)(=O)N(C)C)c3)cc21` [Example 208, 8′-(6-{[1,4′-Bipiperidine]-1′-yl}-5-[(dimethylsulfamoyl)amino]pyridin-3-yl)-3′-methyl-2′,3′-dihydrospiro[cyclobutane-1,1′-pyrrolo[2,3-c]quinoline]-2′-one]: the half-inhibitory concentration (IC50) against DNA-PK is below 0.5 nM; on ATM, 1 to 100 nM.

As to `CCN(C)S(=O)(=O)Nc1cc(-c2ccc3ncc4c(c3c2)C2(CCC2)C(=O)N4C)cnc1N1CCC(N2CCCCC2)CC1` [Example 212, 8′-(6-{[1,4′-Bipiperidine]-1′-yl}-5-[(ethyl(methyl)sulfamoyl)amino}pyridin-3-yl)-3′-methyl-2′,3′-dihydrospiro[cyclobutane-1,1′-pyrrolo[2,3-c]quinoline]-2′-one], the 50% inhibitory concentration (IC50) at DNA-PK and at ATM was 1 to 100 nM throughout.

With `CN1C(=O)C2(CC2)c2c1cnc1ccc(-c3cnc(N4CCC(N5CCCCC5)CC4)c(NS(=O)(=O)c4ccccc4)c3)cc21` [Example 213, N-(2-([1,4′-Bipiperidin]-1′-yl)-5-(3′-methyl-2′-oxo-2′,3′-dihydrospiro[cyclopropane-1,1′-pyrrolo[2,3-c]quinolin]-8′-yl)pyridin-3-yl)benzenesulfonamide methanesulfonate], the IC50 against DNA-PK and against ATM was 1 to 100 nM in each case.

With `CCN(C)S(=O)(=O)Nc1cc(-c2ccc3ncc4c(c3c2)C2(CC2)C(=O)N4C)cnc1N1CCC(N2CCCCC2)CC1` [Example 214], the half-inhibitory concentration (IC50) against DNA-PK and on ATM was 0.5 to 1 nM each time.

For the compound `Cc1ccc(S(=O)(=O)Nc2cc(-c3ccc4ncc5c(c4c3F)C3(CC3)C(=O)N5C)cnc2OCCCN(C)C)cc1` [Example 215, N-(2-(3-(Dimethylamino)propoxy)-5-(9′-fluoro-3′-methyl-2′-oxo-2′,3′-dihydrospiro[cyclopropane-1,1′-pyrrolo[2,3-c]quinolin]-8′-yl)pyridin-3-yl)-4-methylbenzenesulfonamide], the values for the IC50 on DNA-PK and at ATM were below 0.5 nM and 0.5 to 1 nM, respectively.

Turning to `Cc1ccc(S(=O)(=O)n2c(CCN3CCCCC3)cc3ncc(-c4ccc5ncc6c(c5c4)C4(CCC4)C(=O)N6C)cc32)cn1` [Example 216, 3′-Metbyl-8′-(1-((6-methylpyridin-3-yl)sulfonyl)-2-(2-(piperidin-1-yl)ethyl)-1H-pyrrolo[3,2-b]pyridin-6-yl)spiro[cyclobutane-1,1′-pyrrolo[2,3-c]quinolin]-2′(3′-H)-one], the IC50 against DNA-PK and at ATM was 1 to 100 nM each time.

In the case of `Cc1ccc(S(=O)(=O)Nc2cc(-c3cc4c5c(cnc4cc3F)N(C)C(=O)C53CCC3)cnc2OCCCN2CCCCC2)cn1` [Example 217, N-(5-(7′-Fluoro-3′-methyl-2′-oxo-2′,3′-dihydrospiro[cyclobulane-1,1′-pyrrolo[2,3-c]quinolin]-8′-yl)-2-(3-(piperidin-1-yl)propoxy)pyridin-3-yl)-6-methylpyridine-3-sulfonamide hydrochloride], the IC50 on DNA-PK and against ATM was 1 to 100 nM in each case.

`Cc1ccc(S(=O)(=O)Nc2cc(-c3ccc4ncc5c(c4c3)C3(CC3)C(=O)N5C)cnc2N2CCC(N3CCCCC3)CC2)cn1` [Example 218]: the IC50 at DNA-PK is below 0.5 nM; at ATM, 1 to 100 nM.

`CN(C)CCCOc1ncc(-c2ccc3ncc4c(c3c2)C2(CCC2)C(=O)N4C)cc1NS(=O)(=O)c1ccc(O)cc1` [Example 220, N-(2-(3-(Dimethylamino)propoxy)-5-(3′-methyl-2′-oxo-2′,3′-dihydrospiro [cyclobutane-1,1′-pyrrolo[2,3-c]quinolin]-8′-yl)pyridin-3-yl)-4-hydroxybenzenesulfonamide hydrochloride]: the results for the 50% inhibitory concentration (IC50) on DNA-PK and on ATM were below 0.5 nM and 1 to 100 nM, respectively.

On to `Cl.[2H]C1([2H])N(CCCOc2ncc(-c3ccc4ncc5c(c4c3)C3(CCC3)C(=O)N5C)cc2NS(=O)(=O)c2ccc(C)nc2)C([2H])([2H])C([2H])([2H])C([2H])([2H])C1([2H])[2H]` [Example 221, 6-Methyl-N-(5-(3′-methyl-2′-oxo-2′,3′-dihydrospiro[cyclobulane-1,1′-pyrrolo[2,3-c]quinolin]-8′-yl)-2-(3-(piperidin-1-yl-d10)propoxy)pyridin-3-yl)pyridine-3-sulfonamide hydrochloride], for which the results for the half-maximal inhibitory concentration (IC50) on DNA-PK and on ATM were 0.5 to 1 nM and 1 to 100 nM, respectively.

For the compound `CCN(C)S(=O)(=O)Nc1cc(-c2ccc3ncc4c(c3c2)C2(CCC2)C(=O)N4C)cnc1OCCCN1CCCCC1` [Example 222, 8′-(5-{[Ethyl(methyl)sulfamoyl]amino}-6-[3-(piperidin-1-yl)propoxy]pyridin-3-yl)-3′-methyl-2′,3′-dihydrospiro [cyclobutane-1,1′-pyrrolo[2,3-c]quinoline]-2′-one], the half-maximal inhibitory concentration (IC50) on DNA-PK and at ATM was 1 to 100 nM throughout.
